Key:
[1] = CKD population; need for dose adjustment; cited from earlier work
[2] = test system: subtotally nephrectomized (SNx) rats; experiment: Myocyte hypertrophy (H&E stained sections); type: in vivo, rat; conditions: SNx rats vs vehicle-treated SNx; seven weeks treatment
Excerpt: (§1) Briefly, animals were anesthetized with 2.5% inhaled isoflurane, the right kidney was removed via subcapsular nephrectomy and infarction of approximately two thirds of the left kidney was achieved via selective ligation of two out of the three or four branches of the left renal artery. Sham surgery consisted of laparotomy and manipulation of both kidneys before wound closure. Rats were followed for eight weeks after surgery. […] All rats were housed in a stable environment and allowed free access to Reverse Osmosis water and standard rat chow.
Cardiac myocyte hypertrophy was determined on haematoxylin and eosin (H&E) stained sections, as previously reported. Myocyte cross sectional area was determined on H&E stained sections as adapted from the methods described by Frustaci and colleagues.

[3] = test system: subtotally nephrectomized (SNx) rats; experiment: Cardiac gene expression (real time PCR); type: in vivo, rat; conditions: SNx rats vs vehicle-treated SNx; seven weeks treatment
Excerpt: Briefly, animals were anesthetized with 2.5% inhaled isoflurane, the right kidney was removed via subcapsular nephrectomy and infarction of approximately two thirds of the left kidney was achieved via selective ligation of two out of the three or four branches of the left renal artery. Sham surgery consisted of laparotomy and manipulation of both kidneys before wound closure. Rats were followed for eight weeks after surgery. […] All rats were housed in a stable environment and allowed free access to Reverse Osmosis water and standard rat chow. RNA was isolated from homogenized rat heart tissue using TRIzol reagent (Life Technologies, Grand Island, N.Y.). Total RNA (4 μg) was treated with RQ1 DNase (1U/μl) (Promega, Madison, Wis.). DNase treated RNA (4 μg) was reverse-transcribed in a final volume of 25 μl using 0.5 μl AMV-RT (Roche Diagnostics, Laval, Quebec) in the manufacturer's buffer containing 1 mmol/L dNTPs, 0.5 μl RNase inhibitor (Roche) and 2 μg random hexamers (GE Healthcare Life Sciences, Baie d'Urfe, Quebec). […]

[4] = test system: subtotally nephrectomized (SNx) rats; experiment: Renal function (blood pressure, urine protein excretion, GFR); type: in vivo, rat; conditions: seven weeks treatment; for GFR: FITC-inulin clearance
Excerpt: as §1
For estimation of urine protein excretion, rats were individually housed in metabolic cages for 24 h with free access to tap water and standard diet. Urine protein was measured with the benzethonium chloride method. Urinary excretion of markers of renal injury was determined using Rat KidneyMAP v1.0 (Myriad RBM, Austin, Tex.) and expressed as the ratio to urine creatinine determined by autoanalyzer. Glomerular filtration rate (GFR) was determined by FITC-inulin clearance, as previously described.

[5] = test system: patients with type 2 diabetes; conditions: recent meta-analysis; cited from earlier work
[6] = test system: sham and subtotally nephrectomized (SNx) rats; experiment: Renal structure (glomerulosclerosis index, JG-12 and collagen IV immunohistochemistry); type: in vivo, rat; conditions: either sham or SNx rats; seven weeks treatment
Excerpt: as §1
A minimum of 50 glomeruli were examined in PAS-stained kidney sections from each rat. […] Glomerulosclerosis was defined as basement membrane thickening, mesangial hypertrophy and capillary occlusion. A glomerulosclerosis index (GSI) was then calculated using the formula:
[formula] Where Fi is the percentage of glomeruli in the rat kidney with a given score (i).
Immunohistochemistry for glomerular capillary density and tubulointerstitial collagen IV Immunohistochemistry of kidney tissue was performed as previously described with antibodies in the following concentrations: JG-12 1:1000 (Bender Medsystems GbdH, Vienna, Austria) and collagen IV 1:100 (Southern Biotech). Kidney sections were scanned with the Aperio ScanScope system and analysed with ImageScope, as already described. Glomerular endothelial (JG-12) immunostaining was determined in 30 glomerular profiles from each rat kidney section. For estimation of tubulointerstitial collagen IV, the proportional area of positive immunostaining (excluding glomeruli) was determined in 10 randomly selected cortical fields (×100 magnification).

[7] = test system: subtotally nephrectomized (SNx) rats; experiment: Immunohistochemistry for cardiac collagen I; type: in vivo, rat; conditions: SNx rats vs vehicle-treated SNx; seven weeks treatment
Excerpt: as §1
Immunohistochemistry for fibrillar collagen type I (Southern Biotech, Birmingham, Ala.) was performed as previously described with the antibody used at a concentration of 1:400. Stained heart sections were scanned with the Aperio ScanScope system (Aperio, Vista, Calif.) and analysed with ImageScope (Aperio). Interstitial collagen I was determined as the proportional area of positive immunostaining in 10 randomly selected fields (×100 magnification).

[8] = Metabolic parameters (HbA1c, active GLP-1); type: in vivo, rat; conditions: seven weeks; for plasma active GLP-1 levels: both sham and SNx rats, linagliptin 1.5 mg/kg/day or sitagliptin 20 mg/kg/day; for HbA1c: sham and SNx rats, linagliptin 1.5 mg/kg/day or sitagliptin 20 mg/kg/day oral gavage
Excerpt: as §1
Blood glucose was measured with Accu-check Advantage (Roche, Mississauga, Ontario). HbA1c was measured using A1cNow+ (Bayer, Sunnyvale, Calif.). Active GLP-1 was determined using active GLP-1 (v2) kit (Meso Scale Discovery, Rockville, Md.).
Sham and SNx rats treated with vehicle, linagliptin and sitagliptin. Heart weights and kidney weights were increased in SNx rats relative to sham. HbA1c was unchanged in all treatment groups.

[9] = test system: subtotally nephrectomized (SNx) rats; experiment: Cardiac catheterization, pressure volume loops (cardiac function); type: in vivo, rat; conditions: in comparison to vehicle-treated SNx rats, linagliptin 1.5 mg/kg/day or sitagliptin 20 mg/kg/day, seven weeks
Excerpt: as §1
Cardiac catheterization was performed as previously published. Briefly, rats were anesthetized (2% isoflurane), placed on a warming pad (37 °C), intubated and ventilated using positive pressure. The right internal carotid artery was ligated cranially and a 2F miniaturized combined conductance catheter-micromanometer (Model SPR-838, Millar Instruments, Houston, Tex.) was inserted into the carotid artery and advanced into the left ventricle until stable pressure volume (PV) loops were obtained. […] All PV loops were obtained with the ventilator turned off for 5-10 seconds and the animal apneic. […] A range of functional parameters were then calculated using the pressure conductance data (Millar analysis software PVAN 3.4).

In the case of `Cn1c(=O)cc(N2CCC[C@@H](N)C2)n(Cc2ccccc2C#N)c1=O` [alogliptin], the route of clearance [1] is listed as “cleared in the urine”.

In the case of `CC#CCn1c(N2CCC[C@@H](N)C2)nc2c1c(=O)n(Cc1nc(C)c3ccccc3n1)c(=O)n2C` [linagliptin, 1-[(4-methyl-quinazolin-2-yl)methyl]-3-methyl-7-(2-butyn-1-yl)-8-(3-(R)-amino-piperidin-1-yl)-xanthine], the “cardiomyocyte size determined in H&E stained sections” value [2] is reported as “neither cardiomyocyte size determined in H&E stained sections (FIGS. 2C1 and 2C2) nor α-MHC:β-MHC ratio were changed”, the “cardiac collagen I mRNA” value [3] is reported as “attenuation in the overexpression” and the GFR [4] is reported as “neither linagliptin nor sitagliptin significantly affected”. For the same molecule, the blood pressure [4] was “neither linagliptin nor sitagliptin significantly affected”, the proteinuria [4] was “neither linagliptin nor sitagliptin significantly affected” and the albuminuria [5] was “reduction in albuminuria”. The “cortical tubulointerstitial collagen IV immunostaining” value [6] was “None of these markers of renal structural injury were affected”, the “glomerular capillary density (JG-12 immunostaining)” value [6] was “None of these markers of renal structural injury were affected” and the “cardiac collagen I protein” value [7] was “attenuation in the overexpression”. The “plasma active GLP-1 levels” value [8] was “similarly increased”, the HbA1c [8] was “unchanged” and the route of clearance [1] was “secreted via the bile”. The “end diastolic pressure volume relationship (EDPVR)” value [9] was “significantly lower”.

In the case of `N#C[C@@H]1C[C@@H]2C[C@@H]2N1C(=O)[C@@H](N)C12CC3CC(CC(O)(C3)C1)C2` [saxagliptin], the route of clearance [1] is given as “cleared in the urine”.

For `N[C@@H](CC(=O)N1CCn2c(nnc2C(F)(F)F)C1)Cc1cc(F)c(F)cc1F` [sitagliptin], the “cardiomyocyte size determined in H&E stained sections” value [2] was “neither cardiomyocyte size determined in H&E stained sections (FIGS. 2C1 and 2C2) nor α-MHC:β-MHC ratio were changed”, the “cardiac collagen I mRNA” value [3] was “attenuation in the overexpression” and the GFR [4] was “neither linagliptin nor sitagliptin significantly affected”. For the same molecule, the blood pressure [4] was “neither linagliptin nor sitagliptin significantly affected”, the proteinuria [4] was “neither linagliptin nor sitagliptin significantly affected” and the “cortical tubulointerstitial collagen IV immunostaining” value [6] was “None of these markers of renal structural injury were affected”. The “glomerular capillary density (JG-12 immunostaining)” value [6] was “None of these markers of renal structural injury were affected”, the “cardiac collagen I protein” value [7] was “attenuation in the overexpression” and the “plasma active GLP-1 levels” value [8] was “similarly increased”. For the same molecule, the HbA1c [8] was “unchanged”, the route of clearance [1] was “cleared in the urine” and the “end diastolic pressure volume relationship (EDPVR)” value [9] was “significantly lower”.

Source: US9526728B2, “Medical use of a DPP-4 inhibitor” (Boehringer Ingelheim International GmbH, priority 2014, dated 2016)
